{"source": "patent US20080051384A1", "about": "“ANTIVIRAL AGENTS” (Genelabs Technologies, Inc., priority 2006, published 2008)", "data": [{"test": "Replicon Assay (luciferase, ET cell line)", "type": "cell-based, HCV", "settings": "Hepatitis C virus; tested at 6.25 μM; inhibition of replication (luciferase activity) relative to no compound control", "procedure": "A cell line, ET (Huh-lucubineo-ET) was used for screening of compounds for inhibiting HCV RNA dependent RNA polymerase. The ET cell line was stably transfected with RNA transcripts harboring a I389luc-ubi-neo/NS3-3′/ET; replicon with firefly luciferase-ubiquitin-neomycin phosphotransferase fusion protein and EMCV-IRES driven NS3-5B polyprotein containing the cell culture adaptive mutations (E1202G; T12801; K1846T) (Krieger at al, 2001 and unpublished). The ET cells were grown in DMEM, supplemented with 10% fetal calf serum, 2 mM Glutamine, Penicillin (100 IU/mL)/Streptomycin (100 μg/mL), 1× nonessential amino acids, and 250 μg/mL G418 (“Geneticin”). They are all available through Life Technologies (Bethesda, Md.). The cells were plated at 0.5-1.0×10^4 cells/well in the 96 well plates and incubated for 24 hrs before adding test compound. The compounds were added to the cells to achieve a final concentration of 0.1 nM to 50 μm and a final DMSO concentration of 0.5%. Luciferase activity was measured 48-72 hours later by adding a lysis buffer and the substrate (Catalog number Glo-lysis buffer E2661 and Bright-Glo luciferase system E2620 Promega, Madison, Wis.). Cells should not be too confluent during the assay. Percent inhibition of replication data was plotted relative to no compound control. Under the same condition, cytotoxicity of the compounds were determined using cell proliferation reagent, WST-1 (Roche, Germany). The compounds showing antiviral activities, but no significant cytotoxicities were chosen to determine EC50 and TC50, the effective concentration and toxic concentration at which 50% of the maximum inhibition is observed. For these determinations, a 10 point, 2-fold serial dilution for each compound was used, which spans a concentration range of 1000 fold. EC50 and similarly the TC50 values were calculated by fitting % inhibition at each concentration to the following equation: % inhibition=100%/[(EC50/[I])^b+1] where b is Hill's coefficient.", "units": {"inhibition at 6.25 µM": "%"}, "values": [{"smiles": "O=C(O)c1cc2c(s1)c(C1=CCCCC1)c(-c1ccc3nc(-c4ccccc4F)ccc3c1)n2CC(=O)N1CCOCC1", "note": "[compound 186, 6-Cyclohex-1-enyl-5-[2-(2-fluoro-phenyl)-quinolin-6-yl]-4-(2-morpholin-4-yl-2-oxo-ethyl)-4H-thieno[3,2-b]pyrrole-2-carboxylic acid]", "inhibition at 6.25 µM": 75}, {"smiles": "Cc1nc(C)c(-c2ccc3cc(-c4c(C5=CCCCC5)c5sc(C(=O)O)cc5n4CC(=O)N4CCOCC4)ccc3n2)s1", "note": "[compound 187, 6-Cyclohex-1-enyl-5-[2-(2,4-dimethyl-thiazol-5-yl)-quinolin-6-yl]-4-(2-morpholin-4-yl-2-oxo-ethyl)-4H-thieno[3,2-b]pyrrole-2-carboxylic acid]", "inhibition at 6.25 µM": 63}, {"smiles": "O=C(O)c1cc2c(s1)c(C1CCCCC1)c(-c1ccc3nc(-c4ccccc4F)ccc3c1)n2CC(=O)N1CCOCC1", "note": "[compound 188, 6-Cyclohexyl-5-[2-(2-fluoro-phenyl)-quinolin-6-yl]-4-(2-morpholin-4-yl-2-oxo-ethyl)-4H-thieno[3,2-b]pyrrole-2-carboxylic acid]", "inhibition at 6.25 µM": 99}, {"smiles": "Cc1nc(C)c(-c2ccc3cc(-c4c(C5CCCCC5)c5sc(C(=O)O)cc5n4CC(=O)N4CCOCC4)ccc3n2)s1", "note": "[compound 189, 6-cyclohexyl-5-[2-(2,4-dimethyl-thiazol-5-yl)-quinolin-6-yl]-4-(2-morpholin-4-yl-2-oxo-ethyl)-4H-thieno[3,2-b]pyrrole-2-carboxylic acid]", "inhibition at 6.25 µM": 100}, {"smiles": "Cc1nc(C)c(-c2ccc3cc(-c4c(C5CCCCC5)c5sc(C(=O)O)cc5n4CC(=O)N4CCSCC4)ccc3n2)s1", "note": "[compound 190, 6-Cyclohexyl-5-[2-(2,4-dimethyl-thiazol-5-yl)-quinolin-6-yl]-4-(2-oxo-2-thiomorpholin-4-yl-ethyl)-4H-thieno[3,2-b]pyrrole-2-carboxylic acid]", "inhibition at 6.25 µM": 98}, {"smiles": "Cc1nc(C)c(-c2ccc3cc(-c4c(C5CCCCC5)c5sc(C(=O)O)cc5n4CC(=O)N4CCCCC4)ccc3n2)s1", "note": "[compound 191, 6-cyclohexyl-5-[2-(2,4-dimethyl-thiazol-5-yl)-quinolin-6-yl]-4-(2-oxo-2-piperidin-1-yl-ethyl)-4H-thieno[3,2-b]pyrrole-2-carboxylic acid]", "inhibition at 6.25 µM": 97}]}]}
